Reference: patent publication US9101566B2, “Fermentation product of cereal plant-derived material and immunomodulator” (KIRIN HOLDINGS KABUSHIKI KAISHA, priority 2009, dated 2015)

Key:
[1] = Solubility in solvent; assay type: physicochemical
[2] = system: mDCs treated with 14-DHE co-cultured with naive CD4+ T cells; assay: Antigen-non-specific Treg-inducing capacity (MLR) of DCs treated with 14-DHE (Example 10); assay type: cell-based, mouse
Protocol: In a manner similar to that in the above Examples, DCs were induced using Flt-3L from BALB/c mouse bone marrow cells in the presence of a processed product of wheat bran fermented with koji and then treated with LPS for 24 hours. mDCs were sorted from the thus obtained cells in a manner similar to that in Example 3 and then subjected to mitomycin C treatment to stop the DC proliferation.
Next, naive CD4^+ T cells were sorted from C57BL/6, DCs and the sorted cells were mixed at DC:CD4^+T=1:10 (the number of cells), and then they were co-cultured. At this time, the medium was supplemented with 0.5 ng/mL TGF-β1 (Peprotech).
Seven days layer, cells were recovered and then the proportion of FoxP3^+CD25^+ T cells in CD^+ T cells was determined using a flow cytometer (after staining of cell surface markers using anti-CD25-FITC, anti-CD3-APC-Cy7, and anti-CD4-PerCP, cell permeabilization treatment was performed using a Foxp3 Staining Buffer Set (e Bioscience) according to the manufacturer's instructions, and then intracellular Foxp3 was stained with anti-Foxp3-PE (e Bioscience)). […]
In a manner similar to that in Example 5, the Treg-inducing activity of mDCs treated with 14-DHE was measured. […]

[3] = system: DCs induced from C57BL/6 mouse bone marrow cells; assay: Timing and duration of the DC-activation-suppressing effect of 14-DHE (Example 14); assay type: cell-based
Protocol: In a manner similar to those of the Examples above, C57BL/6 mouse bone marrow cells were prepared and then DCs were induced using Flt-3. The concentration of the added 14-DHE was 3 μM in all cases. The drug residence time in the culture system was controlled by medium exchange. Inflammation was induced using 5 ng/mL LPS, and then the expression level of CD86 was measured using a flow cytometer, so that the characteristics of regulatory DCs were determined. At this time, the cells that had been treated with LPS and without 14-DHE were used as control cells. The median fluorescence intensity (Median Fluorescence Intensity: MFI) of CD86 in the cells treated with 14-DHE was divided by MFI of untreated cells. The determined values indicate: 1 or more, no effect (score: −); 0.7-0.99, weak effect (score: +); 0.4-0.69, moderate effect (score: ++); and 0.4 or less, strong effect (score: +++).

[4] = system: multiple sclerosis model mouse (Experimental Autoimmune Encephalomyelitic; EAE); assay: Multiple sclerosis model mouse (EAE): disease score (Example 15); assay type: in vivo; conditions: 10 μg/animal i.p. once a day, days 7 to 18; vs vehicle group
Protocol: Eight-week-old female C57BL/6 mice were divided into the following 2 groups at 5 mice per group:
(2) 14-DHE Group (10 μg/Animal)
(§1) On day 0, the 35-55 peptide (MOG35-55, Operon), a glycoprotein of myelin oligodendroglial cells, as an antigen was mixed with complete Freund's adjuvant (CFA, Difco) and then the mixture was subcutaneously administered at a dose of 200 μg/animal. Subsequently, pertussis toxin (Wako Pure Chemical Industries, Japan) was intraperitoneally administered at a dose of 200 ng/animal on day 1 and day 3, thereby inducing the onset of multiple sclerosis. During days 7 to 18, 14-DHE was intraperitoneally administered at a dose of 10 μg/animal once a day. To the vehicle group, the following solvent for 14-DHE was administered: 10% ethanol (Wako Pure Chemical Industries, Japan)/10% Cremophor (Wako Pure Chemical Industries, Japan)/80% PBS (Takara, Japan).
During the experimental period (i.e., during days 0 to 20), disease score was determined based on the following criteria:
Score 1: Unable to freely move tail
Score 2: Unable to normally walk
Score 3: Paralysis of one hindlimb
Score 4: Paralysis of both hindlimbs
Score 5: Paralysis of forelimbs and hindlimbs

[5] = system: CD4+ T cells in regional lymph node cells and spleen cells of EAE mice; assay: EAE model, day 11 autopsy: CD4+ T cell proliferation (CFSE); assay type: in vivo, mouse
Protocol: as §1
Mice were autopsied on day 11 (when inflammation was thought to take place in vivo) to obtain biochemical data.
(3) Regional lymph node cells and spleen cells were stained using the CellTrace CFSE Proliferation kit (Molecular Probes). The stained cells were seeded at a concentration of 1×10^6 cells/mL and then cultured for 3 days with stimulation with 2 μM MOG. Cells were recovered, stained with CD3-PerCP and CD4-APC, and then subjected to FACS analysis. Cell proliferation was evaluated as a proportion of cells with decreased CFSE fluorescence intensity in all cells.

CC(C)[C@@H](C)/C=C/[C@@H](C)[C@H]1CC=C2C3=CC=C4C[C@@H](O)CC[C@]4(C)[C@H]3CC[C@@]21C [Sample 14-DHE, ergosta-5,7,14,22-tetraen-3β-ol]
Solubility in solvent: chloroform ([1]; chloroform): readily soluble | Solubility in solvent: ethanol ([1]; ethanol): hardly soluble | Solubility in solvent: water ([1]; water): insoluble | generation of Treg compared with the control [2]: about 2 times | duration of the effect ([3]; 14-DHE 3 μM): 72 h | DC activation (CD86)-suppressing effect ([3]; 14-DHE 3 μM added for 5 or 6 days from initiation of differentiation): the degree of the effect significantly decreased | DC activation (CD86)-suppressing effect ([3]; 14-DHE 3 μM added for 7 days starting from initiation of DC differentiation, LPS 5 ng/mL): strong effect | DC activation (CD86)-suppressing effect ([3]; 14-DHE 3 μM addition begun on day 7 when DC differentiation was completed): strong effect | DC activation (CD86)-suppressing effect ([3]; 14-DHE absent at the time of adding LPS): decrease in the effect was observed | time within which the effect significantly decreased ([3]; addition begun on day 0 or on day 7): ≤ 72 h | time required for 14-DHE to exhibit its effect ([3]; addition from initiation of DC differentiation): ≥ 7 days | accumulated disease score [4]: decreases were confirmed | incidence [4]: decreases were confirmed | maximum score [4]: decreases were confirmed | onset [4]: delayed onset | proliferation rate of CD4+ T cells in lymph node cells [5]: decreasing trend | proliferation rate of CD4+ T cells in spleen cells ([5]; with or without re-stimulation with MOG antigen): significant decrease
